# In patent US7223776B2, “Compounds with anti-bacterial activity” (priority 2002, dated 2007):
# Assay: Anti-bacterial activity: MHK measured against a panel of bacterial strains
# Assay type: cell-based
# Details: in relation to at least one of the listed strains (strain not specified); read-out: MHK
# Protocol: The MHK (μg/ml) of those compounds was measured in relation to the following bacterial strains: S. aureus ATCC 29213, S. aureus 16, E. faecalis ATCC 29212, E. faecium vanA E25-1, H. influenzae 11, E. coli ATCC 25922, M. catarrhalis 117, S. pneumoniae ATCC 49619. Examples 5–6, 8, 11–16, 18–26, 30, 44–45, 47–58 have an MHK<=0.125 in relation to at least one of the listed strains.
row,Structure (SMILES),MIC [µg/mL]
1,"COc1ccc2nccc(C(O)CN3CCC[C@@H](CNCc4ccc5nsnc5c4)C3)c2c1 (mixture of isomers) [Example 6, (3S)-2-(3-{[(Benzo[1,2,5]thiadiazol-5-ylmethyl)-amino]-methyl}-piperidin-1-yl)-(1RS)-(6-methoxy-quinolin-4-yl)-ethanol]",≤ 0.125
2,"COc1ccc2nccc(C(O)CN3CCC[C@@H](CNCc4ccc5c(c4)NC(=O)CO5)C3)c2c1 (mixture of isomers) [Example 5, (3S)-6-[({1-[2-Hydroxy-2-(6-methoxy-quinolin-4-yl)-ethyl]-piperidin-(3RS)-ylmethyl}-amino)-methyl]-4H-benzo[1,4]oxazin-3-one]",≤ 0.125
3,COc1ccc2nccc(C(O)CN3CCC[C@@H](CNCc4ccc5c(c4)OCCCO5)C3)c2c1 (mixture of isomers) [Example 7],≤ 0.5
4,"COc1ccc2nccc(C(O)CN3CCC[C@@H](CNCc4ccc5c(c4)OCO5)C3)c2c1 (mixture of isomers) [Example 9, 2-((3S)-{[(2,3-Dihydro-benzo[1,3]dioxo-6-ylmethyl)-amino]-methyl}-piperidin-1-yl)-(1RS)-(6-methoxy-quinolin-4-yl)-ethanol]",≤ 0.5
5,COc1ccc2nccc(C(O)CN3CCCC(NCc4ccc5c(c4)OCCO5)CC3)c2c1 (racemic) [Example 34],≤ 0.5
6,"COc1ccc2nccc(C(O)CN3CCOC(CNCc4ccc5c(c4)OCCO5)C3)c2c1 (racemic) [Example 61, 2-((2RS)-{[(2,3-Dihydro-benzo[1,4]dioxin-6-ylmethyl)-amino]-methyl}-morpholin-4-yl)-(1RS)-(6-methoxy-quinolin-4-yl)-ethanol]",≤ 0.5
7,"COc1ccc2nccc(CCC3CCC(NCc4ccc5c(c4)NC(=O)CO5)CC3)c2c1 (stereo not shown) [Example 30, 6-({4-[2-(6-Methoxy-quinolin-4-yl)-ethyl]-cyclohexylamino}-methyl)-4H-benzo[1,4]oxazin-3-one]",≤ 0.125
8,"COc1ccc2ncnc(OCC3CCC(NCc4ccc5c(c4)OCCO5)CC3)c2c1 (stereo not shown) [Example 42, (2,3-Dihydro-benzo[1,4]dioxin-6-ylmethyl)-[4-(6-methoxy-quinazolin-4-yloxymethyl)-cyclohexyl]-amine]",≤ 0.5
9,"COc1ccc2ncnc(OCC3CCC(NCc4cnc5ccccc5n4)CC3)c2c1 (stereo not shown) [Example 43, [4-(6-Methoxy-quinazolin-4-yloxymethyl)-cyclohexyl]-quinoxalin-2-ylmethyl-amine]",≤ 0.5
10,"COc1ccc2ncnc(OCC3CCC(NCc4ccc5c(c4)NC(=O)CO5)CC3)c2c1 (stereo not shown) [Example 44, 6-{[4-(6-Methoxy-quinazolin-4-yloxymethyl)-cyclohexylamino]-methyl}-4H-benzo[1,4]oxazin-3-one]",≤ 0.125
11,"COc1ccc2ncnc(OCC3CCC(NC/C=C/c4ccccc4)CC3)c2c1 (stereo not shown) [Example 45, [4-(6-Methoxy-quinazolin-4-yloxymethyl)-cyclohexyl]-(3-phenyl-allyl)-amine]",≤ 0.125
12,"COc1ccc2ncnc(OCC3CCC(NCC(=O)Nc4ccccn4)CC3)c2c1 (stereo not shown) [Example 46, 2-[4-(6-Methoxy-quinazolin-4-yloxymethyl)-cyclohexylamino]-N-pyridin-2-yl-acetamide]",≤ 0.5
13,"COc1ccc2nccc(C(O)CN3CCC=C(CNCc4ccc5c(c4)OCCO5)C3)c2c1 (stereo not shown) [Example 59, 2-(5-{[(2,3-Dihydro-benzo[1,4]dioxin-6-ylmethyl)-amino]-methyl}-3,6-dihydro-2H-pyridin-1-yl)-1-(6-methoxy-quinolin-4-yl)-ethanol]",≤ 0.5

# Same assay, conditions: read-out: MHK
row,Structure (SMILES),MIC [µg/mL]
1,"COc1ccc2nccc([C@@H](O)CN3CCC[C@@H](CNCc4ccc5c(c4)OCCO5)C3)c2c1 [Example 8, 2-((3S)-{[(2,3-Dihydro-benzo[1,4]dioxin-6-ylmethyl)-amino]-methyl}-piperidin-1-yl)-(1S)-(6-methoxy-quinolin-4-yl)-ethanol]",≤ 0.125
2,"COc1ccc2ncnc(CCC3(O)CCC(NCc4ccc5c(c4)OCO5)CC3)c2c1 (stereo not shown) [Example 10, 4-[(Benzo[1.3]dioxol-5-ylmethyl)-amino]-1-[2-(6-methoxy-quinazolin-4-yl)-ethyl]-cyclohexanol]",≤ 0.5
3,CCOc1ccc2nccc(CCC3(O)CCC(NCc4ccc5c(c4)OCO5)CC3)c2c1 (stereo not shown) [Example 17],≤ 0.5
